# What was measured:
# MAPKAPK5 = MAPKAPK5 (Homo sapiens, UniProt Q8IW41); assay: KINOMEscan; details: read-out: Percent Control
# Description: (§1) The kinase engagement assay (KINOMEscan®) was performed by DiscoverX assessing binding abilities toward a set of kinases.
# FLT3 = FLT3 (Homo sapiens, UniProt P36888); assay: KINOMEscan; details: read-out: Percent Control
# Description: as §1
# AXL = AXL (Homo sapiens, UniProt P30530); assay: KINOMEscan; details: read-out: Percent Control
# Description: as §1
# LATS1 = LATS1 (Homo sapiens, UniProt O95835); assay: KINOMEscan; details: read-out: Percent Control
# Description: as §1
# PDGFRA = PDGFRA (Homo sapiens, UniProt P16234); assay: KINOMEscan; details: read-out: Percent Control
# Description: as §1
# [1] = molecular target: JAK3(JH1domain-catalytic) (Homo sapiens, UniProt P52333); assay: KINOMEscan; details: read-out: Percent Control
# Description: as §1
# PRP4 = molecular target: T1, PRP4 (Homo sapiens, UniProt Q13523); assay: KINOMEscan; format: binding; details: read-out: Percent Control
# T1 construct: purchased DiscoverX
# SIK2 = SIK2 (Homo sapiens, UniProt Q9H0K1); assay: KINOMEscan; details: read-out: Percent Control
# Description: as §1
# TRKB = TRKB (Homo sapiens, UniProt Q16620); assay: KINOMEscan; details: read-out: Percent Control
# Description: as §1
# CAMK2G = CAMK2G (Homo sapiens, UniProt Q13555); assay: KINOMEscan; details: read-out: Percent Control
# Description: as §1
# DCAMKL2 = DCAMKL2 (Homo sapiens, UniProt Q8N568); assay: KINOMEscan; details: read-out: Percent Control
# Description: as §1
# DAPK3 = DAPK3 (Homo sapiens, UniProt O43293); assay: KINOMEscan; details: read-out: Percent Control
# Description: as §1
# KIT-autoinhibited = KIT-autoinhibited (Homo sapiens, UniProt P10721); assay: KINOMEscan; details: read-out: Percent Control
# KIT-autoinhibited, sequence (P10721 544-976 limits assumed): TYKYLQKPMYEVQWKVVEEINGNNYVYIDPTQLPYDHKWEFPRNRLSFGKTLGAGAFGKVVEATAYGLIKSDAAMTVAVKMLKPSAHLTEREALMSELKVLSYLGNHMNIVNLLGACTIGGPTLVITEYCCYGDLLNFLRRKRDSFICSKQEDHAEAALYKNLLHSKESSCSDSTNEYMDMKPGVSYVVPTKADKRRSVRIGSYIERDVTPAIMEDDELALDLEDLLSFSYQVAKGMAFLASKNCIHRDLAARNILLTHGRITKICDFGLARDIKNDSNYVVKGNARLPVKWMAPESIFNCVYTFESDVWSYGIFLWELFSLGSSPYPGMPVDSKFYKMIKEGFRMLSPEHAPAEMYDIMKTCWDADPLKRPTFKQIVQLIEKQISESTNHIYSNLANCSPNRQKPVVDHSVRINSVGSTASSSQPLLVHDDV
# Description: as §1
# INSRR = INSRR (Homo sapiens, UniProt P14616); assay: KINOMEscan; details: read-out: Percent Control
# Description: as §1
# MAP4K5 = MAP4K5 (Homo sapiens, UniProt Q9Y4K4); assay: KINOMEscan; details: read-out: Percent Control
# Description: as §1
# PCTK3 = PCTK3 (Homo sapiens, UniProt Q07002); assay: KINOMEscan; details: read-out: Percent Control
# PCTK3, sequence (Q07002 whole entry): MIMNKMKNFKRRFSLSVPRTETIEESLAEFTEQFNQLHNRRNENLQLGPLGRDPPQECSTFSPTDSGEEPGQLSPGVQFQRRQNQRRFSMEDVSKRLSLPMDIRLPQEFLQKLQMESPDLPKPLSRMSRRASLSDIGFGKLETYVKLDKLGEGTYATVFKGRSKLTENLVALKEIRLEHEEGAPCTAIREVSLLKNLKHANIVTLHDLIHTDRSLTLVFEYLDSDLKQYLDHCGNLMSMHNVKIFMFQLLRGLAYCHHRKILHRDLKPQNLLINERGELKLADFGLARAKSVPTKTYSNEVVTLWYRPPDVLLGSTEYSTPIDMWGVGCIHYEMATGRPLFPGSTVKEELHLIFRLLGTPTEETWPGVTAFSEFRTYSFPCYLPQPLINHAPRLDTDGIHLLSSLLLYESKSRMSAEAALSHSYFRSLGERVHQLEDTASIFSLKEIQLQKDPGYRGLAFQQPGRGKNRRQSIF
# Description: as §1
# CDK5 = CDK5 (Homo sapiens, UniProt Q00535); assay: KINOMEscan; details: read-out: Percent Control
# Description: as §1
# MYO3B = MYO3B (Homo sapiens, UniProt Q8WXR4); assay: KINOMEscan; details: read-out: Percent Control
# Description: as §1
# NIK = NIK (Homo sapiens, UniProt Q99558); assay: KINOMEscan; details: read-out: Percent Control
# Description: as §1
# GCN2(Kin.Dom.2, S808G) = GCN2(Kin.Dom.2, S808G) (Homo sapiens, UniProt Q9P2K8, S808G); assay: KINOMEscan; details: read-out: Percent Control
# Description: as §1
# PIKFYVE = PIKFYVE (Homo sapiens, UniProt Q9Y2I7); assay: KINOMEscan; details: read-out: Percent Control
# Description: as §1
# [2] = molecular target: ABL1(T315I)-phosphorylated (Homo sapiens, UniProt P00519, T315I); assay: KINOMEscan; details: read-out: Percent Control
# Description: as §1
# PAK4 = PAK4 (Homo sapiens, UniProt O96013); assay: Z'-LYTE FRET kinase inhibition assay; format: biochemical; parameters: purchased Invitrogen
# Text: […]. […] […].
# HUNK = HUNK (Homo sapiens, UniProt P57058); assay: KINOMEscan; details: read-out: Percent Control
# Description: as §1
# CDC2L2 = CDC2L2 (Homo sapiens, UniProt Q9UQ88); assay: KINOMEscan; details: read-out: Percent Control
# Description: as §1
# WEE2 = WEE2 (Homo sapiens, UniProt P0C1S8); assay: KINOMEscan; details: read-out: Percent Control
# WEE2, sequence (P0C1S8 whole entry): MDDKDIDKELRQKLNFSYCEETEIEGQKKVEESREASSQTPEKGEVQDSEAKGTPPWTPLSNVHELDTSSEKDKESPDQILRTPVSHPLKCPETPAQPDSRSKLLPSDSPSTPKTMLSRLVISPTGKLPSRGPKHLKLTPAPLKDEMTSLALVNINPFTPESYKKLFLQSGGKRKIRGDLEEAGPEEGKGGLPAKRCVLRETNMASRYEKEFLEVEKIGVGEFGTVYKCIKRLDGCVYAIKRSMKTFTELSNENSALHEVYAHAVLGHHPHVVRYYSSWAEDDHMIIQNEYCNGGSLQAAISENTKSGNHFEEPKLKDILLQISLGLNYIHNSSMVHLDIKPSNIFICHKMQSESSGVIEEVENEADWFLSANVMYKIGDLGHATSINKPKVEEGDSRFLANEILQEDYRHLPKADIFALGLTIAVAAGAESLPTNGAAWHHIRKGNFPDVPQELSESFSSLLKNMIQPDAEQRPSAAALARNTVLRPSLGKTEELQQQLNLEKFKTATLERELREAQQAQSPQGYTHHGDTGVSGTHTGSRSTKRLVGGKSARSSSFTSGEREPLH
# Description: as §1
# MEK4 = MEK4 (Homo sapiens, UniProt P45985); assay: KINOMEscan; details: read-out: Percent Control
# Description: as §1
# EGFR(T790M) = EGFR(T790M) (Homo sapiens, UniProt P00533, T790M); assay: KINOMEscan; details: read-out: Percent Control
# Description: as §1
# PRKCE = PRKCE (Homo sapiens, UniProt Q02156); assay: KINOMEscan; details: read-out: Percent Control
# Description: as §1
# CDK7 = CDK7 (Homo sapiens, UniProt P50613); assay: KINOMEscan; details: read-out: Percent Control
# Description: as §1
# MAPKAPK2 = MAPKAPK2 (Homo sapiens, UniProt P49137); assay: KINOMEscan; details: read-out: Percent Control
# MAPKAPK2, sequence (P49137 whole entry): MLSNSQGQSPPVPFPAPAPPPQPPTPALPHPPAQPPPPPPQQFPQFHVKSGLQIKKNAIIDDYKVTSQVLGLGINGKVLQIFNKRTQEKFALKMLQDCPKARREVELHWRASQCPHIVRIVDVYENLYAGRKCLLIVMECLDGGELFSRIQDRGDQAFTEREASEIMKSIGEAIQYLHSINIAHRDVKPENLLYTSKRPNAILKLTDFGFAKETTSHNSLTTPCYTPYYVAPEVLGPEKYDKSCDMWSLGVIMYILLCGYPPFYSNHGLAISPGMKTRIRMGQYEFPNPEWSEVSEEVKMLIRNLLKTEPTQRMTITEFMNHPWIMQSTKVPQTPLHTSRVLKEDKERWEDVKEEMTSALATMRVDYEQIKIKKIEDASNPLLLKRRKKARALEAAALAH
# Description: as §1
# PRKD1 = PRKD1 (Homo sapiens, UniProt Q15139); assay: KINOMEscan; details: read-out: Percent Control
# Description: as §1
# NEK1 = NEK1 (Homo sapiens, UniProt Q96PY6); assay: KINOMEscan; details: read-out: Percent Control
# NEK1, sequence (Q96PY6 whole entry): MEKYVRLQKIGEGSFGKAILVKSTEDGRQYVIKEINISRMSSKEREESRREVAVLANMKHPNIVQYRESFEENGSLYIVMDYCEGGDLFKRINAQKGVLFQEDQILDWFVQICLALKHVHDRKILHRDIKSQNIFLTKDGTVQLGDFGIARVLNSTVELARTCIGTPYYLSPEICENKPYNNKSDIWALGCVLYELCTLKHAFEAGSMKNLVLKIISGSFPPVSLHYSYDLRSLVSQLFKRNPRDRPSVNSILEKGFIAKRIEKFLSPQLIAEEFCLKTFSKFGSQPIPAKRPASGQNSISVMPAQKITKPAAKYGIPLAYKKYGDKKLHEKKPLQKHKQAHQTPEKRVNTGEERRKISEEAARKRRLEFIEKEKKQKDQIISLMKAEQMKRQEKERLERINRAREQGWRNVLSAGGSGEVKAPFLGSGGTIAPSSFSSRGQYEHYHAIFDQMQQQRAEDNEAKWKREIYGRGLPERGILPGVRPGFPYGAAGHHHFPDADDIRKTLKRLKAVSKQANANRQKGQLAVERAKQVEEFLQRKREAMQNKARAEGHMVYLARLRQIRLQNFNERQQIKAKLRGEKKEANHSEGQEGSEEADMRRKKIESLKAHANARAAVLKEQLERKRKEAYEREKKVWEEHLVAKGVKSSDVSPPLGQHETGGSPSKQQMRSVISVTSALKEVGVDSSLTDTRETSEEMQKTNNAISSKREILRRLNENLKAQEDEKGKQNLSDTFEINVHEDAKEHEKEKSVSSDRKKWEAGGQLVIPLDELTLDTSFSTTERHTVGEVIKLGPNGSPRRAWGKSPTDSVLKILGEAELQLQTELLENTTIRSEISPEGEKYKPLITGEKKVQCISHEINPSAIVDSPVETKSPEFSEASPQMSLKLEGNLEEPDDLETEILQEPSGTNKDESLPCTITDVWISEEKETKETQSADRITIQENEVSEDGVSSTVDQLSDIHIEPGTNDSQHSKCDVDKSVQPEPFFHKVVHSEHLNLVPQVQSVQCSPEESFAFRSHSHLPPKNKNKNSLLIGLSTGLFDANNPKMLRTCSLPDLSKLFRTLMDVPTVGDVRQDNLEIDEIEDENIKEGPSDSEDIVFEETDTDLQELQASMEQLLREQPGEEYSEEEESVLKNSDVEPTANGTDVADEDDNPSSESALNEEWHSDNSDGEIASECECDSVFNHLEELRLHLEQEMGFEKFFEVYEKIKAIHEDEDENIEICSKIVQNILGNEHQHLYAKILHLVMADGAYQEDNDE
# Description: as §1
# [3] = molecular target: RSK2(Kin.Dom.1-N-terminal) (Homo sapiens, UniProt P51812); assay: KINOMEscan; details: read-out: Percent Control
# Description: as §1
# TNNI3K = TNNI3K (Homo sapiens, UniProt Q59H18); assay: KINOMEscan; details: read-out: Percent Control
# TNNI3K, sequence (Q59H18 whole entry): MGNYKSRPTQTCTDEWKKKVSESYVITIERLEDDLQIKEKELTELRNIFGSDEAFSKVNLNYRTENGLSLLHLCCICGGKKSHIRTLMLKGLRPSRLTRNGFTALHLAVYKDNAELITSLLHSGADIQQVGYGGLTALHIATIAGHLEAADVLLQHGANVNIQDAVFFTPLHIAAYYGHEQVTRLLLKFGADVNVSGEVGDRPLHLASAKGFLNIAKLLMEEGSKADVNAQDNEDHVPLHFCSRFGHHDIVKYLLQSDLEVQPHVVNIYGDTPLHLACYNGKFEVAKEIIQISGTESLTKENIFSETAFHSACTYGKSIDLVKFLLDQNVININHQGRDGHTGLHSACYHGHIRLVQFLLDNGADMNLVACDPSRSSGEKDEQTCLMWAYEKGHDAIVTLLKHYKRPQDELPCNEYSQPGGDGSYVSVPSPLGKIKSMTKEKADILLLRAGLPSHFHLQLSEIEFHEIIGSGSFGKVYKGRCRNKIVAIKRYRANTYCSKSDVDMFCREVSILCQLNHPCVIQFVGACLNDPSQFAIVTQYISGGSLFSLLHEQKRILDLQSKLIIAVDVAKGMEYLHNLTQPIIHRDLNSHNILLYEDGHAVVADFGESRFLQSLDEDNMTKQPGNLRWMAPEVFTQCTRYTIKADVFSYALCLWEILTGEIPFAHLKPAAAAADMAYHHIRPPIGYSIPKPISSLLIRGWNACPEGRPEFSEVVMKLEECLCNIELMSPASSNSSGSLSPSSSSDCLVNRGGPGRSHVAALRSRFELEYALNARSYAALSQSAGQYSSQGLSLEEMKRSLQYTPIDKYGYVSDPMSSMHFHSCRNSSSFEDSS
# Description: as §1
# CIT = CIT (Homo sapiens, UniProt O14578); assay: KINOMEscan; details: read-out: Percent Control
# Description: as §1
# YSK4 = YSK4 (Homo sapiens, UniProt Q56UN5); assay: KINOMEscan; details: read-out: Percent Control
# Description: as §1
# PIM1 = PIM1 (Homo sapiens, UniProt P11309); assay: KINOMEscan; details: read-out: Percent Control
# Description: as §1
# AXL, sequence (P30530 26-894): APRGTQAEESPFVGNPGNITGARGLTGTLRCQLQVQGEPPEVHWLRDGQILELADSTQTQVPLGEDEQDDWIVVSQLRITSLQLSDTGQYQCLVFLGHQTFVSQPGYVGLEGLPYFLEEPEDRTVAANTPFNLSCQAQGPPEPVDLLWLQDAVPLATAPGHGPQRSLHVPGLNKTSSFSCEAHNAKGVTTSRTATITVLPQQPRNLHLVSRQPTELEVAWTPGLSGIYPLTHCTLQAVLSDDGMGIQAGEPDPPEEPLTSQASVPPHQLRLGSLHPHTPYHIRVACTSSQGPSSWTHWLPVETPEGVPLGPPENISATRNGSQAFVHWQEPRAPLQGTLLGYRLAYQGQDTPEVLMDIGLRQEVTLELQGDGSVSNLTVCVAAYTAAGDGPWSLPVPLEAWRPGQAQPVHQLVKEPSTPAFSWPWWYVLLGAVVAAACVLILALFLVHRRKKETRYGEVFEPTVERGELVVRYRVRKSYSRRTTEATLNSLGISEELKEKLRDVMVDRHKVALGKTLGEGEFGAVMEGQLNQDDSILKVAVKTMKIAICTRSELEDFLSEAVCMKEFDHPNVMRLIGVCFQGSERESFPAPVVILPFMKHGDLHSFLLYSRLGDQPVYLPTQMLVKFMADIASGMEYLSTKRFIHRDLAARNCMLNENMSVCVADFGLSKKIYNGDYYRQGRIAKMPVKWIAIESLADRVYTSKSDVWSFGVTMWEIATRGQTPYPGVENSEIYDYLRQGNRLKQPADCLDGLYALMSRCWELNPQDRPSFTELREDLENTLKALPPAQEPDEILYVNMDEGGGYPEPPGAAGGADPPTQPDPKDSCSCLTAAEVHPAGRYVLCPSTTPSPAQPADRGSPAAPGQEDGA
smiles,measurement,setting,value
"O=C1CCC(N2C(=O)c3cccc(NCCCCCCCCNC(=O)N4CC[C@H](NC5=Nc6cc(F)ccc6N(CC(F)F)c6ccc(Cl)cc65)C4)c3C2=O)C(=O)N1 (stereo partly drawn) [BJG-05-039, (3S)-3-((2-Chloro-5-(2,2-difluoroethyl)-8-fluoro-5H-dibenzo[b,e][1,4]diazepin-11-yl)amino)-N-(8-((2-(2,6-dioxopiperidin-3-yl)-1,3-dioxoisoindolin-4-yl)amino)octyl)pyrrolidine-1-carboxamide]",remaining binding at 10 µM,MAPKAPK5,100%
same,remaining binding at 10 µM,FLT3,53%
same,remaining binding at 10 µM,AXL,49%
same,remaining binding at 10 µM,LATS1,100%
same,remaining binding at 10 µM,PDGFRA,100%
same,remaining binding at 10 µM,[1],97%
same,remaining binding at 10 µM,PRP4,97%
same,remaining binding at 10 µM,SIK2,97%
same,remaining binding at 10 µM,TRKB,67%
same,remaining binding at 10 µM,CAMK2G,51%
same,remaining binding at 10 µM,DCAMKL2,92%
same,remaining binding at 10 µM,DAPK3,40%
same,remaining binding at 10 µM,KIT-autoinhibited,100%
same,remaining binding at 10 µM,INSRR,65%
same,remaining binding at 10 µM,MAP4K5,59%
same,remaining binding at 10 µM,PCTK3,91%
same,remaining binding at 10 µM,CDK5,90%
same,remaining binding at 10 µM,MYO3B,88%
same,remaining binding at 10 µM,NIK,76%
same,remaining binding at 10 µM,"GCN2(Kin.Dom.2, S808G)",56%
same,remaining binding at 10 µM,PIKFYVE,79%
same,remaining binding at 10 µM,[2],100%
same,IC50,PAK4,> 10 µM
same,remaining binding at 10 µM,HUNK,100%
same,remaining binding at 10 µM,CDC2L2,84%
same,remaining binding at 10 µM,WEE2,78%
same,remaining binding at 10 µM,MEK4,85%
same,remaining binding at 10 µM,EGFR(T790M),97%
same,remaining binding at 10 µM,PRKCE,100%
same,remaining binding at 10 µM,CDK7,100%
same,remaining binding at 10 µM,MAPKAPK2,60%
same,remaining binding at 10 µM,PRKD1,81%
same,remaining binding at 10 µM,NEK1,83%
same,remaining binding at 10 µM,[3],82%
same,remaining binding at 10 µM,TNNI3K,82%
same,remaining binding at 10 µM,CIT,94%
same,remaining binding at 10 µM,YSK4,93%
same,remaining binding at 10 µM,PIM1,75%

# — patent publication US20250312462A1, “PAK1 DEGRADERS AND METHODS OF USE THEREOF” (INSTITUTE FOR CANCER RESEARCH D/B/A THE RESEARCH INSTITUTE …, priority 2022, published 2025)
